# Assay results: US7629156B2, “Ethanol production in fermentation of mixed sugars containing xylose” (E.I. du Pont de Nemours and Company, priority 2006, dated 2009)
# Experiments:
# Assay type in all cases: cell-based, Zymomonas mobilis
# ZW658 strain [1] = assay: Flask fermentation of ZW658 on glucose and xylose with sorbitol 10-200 mM
# Experimental: (§1) Approximately 1 ml of well mixed sample was obtained from flask or fermentor. First the sample absorbance was measured directly with a spectrophotometer (Amersham Biosciences Ultrospec 3300pro, GE Healthcare, Piscataway, N.J., USA). If the reading was lower than 0.6 unit, no dilution was needed. If the reading was higher than 0.6 unit, the sample was diluted with culture medium until the actual reading was in the range of 0.1 to 0.6 unit. The original OD was calculated from the dilution ratio and the actual reading.
# (§2) The analysis of sugars, acetate, ethanol, and other by-products was done with an Agilent 1100 series HPLC and Agilent ChemStation software for LC 3D. The column was BioRad Aminex HPX-87H(HPLC Organic Analysis Column 125-0140) with BioRad Micro-Guard Cartridge Cation-H (125-0129). The operating conditions were:
# (§3) Glycerol stock of seed frozen at −80° C. was thawed, then inoculated into sterile culture tubes with mixture of 60 g/L glucose, 20 g/L xylose, 10 g/L yeast extract (YE), 10 g/L KH2PO4, 2 g/L (NH4)2SO4, and 1 g/L MgSO4. Initial pH was adjusted to 5.5 with 4 N KOH. This revival culture was grown statically overnight at 37° C. It was transferred into shake flasks with 75 g/L glucose, 25 g/L xylose, 10 g/L yeast extract (YE), 10 g/L KH2PO4, 2 g/L (NH4)2SO4, and 1 g/L MgSO4. Initial pH was adjusted to 5.5 with 4 N KOH. Growth was monitored by measuring OD600. When the OD reached approximately 5, a certain volume of the seed was withdrawn into a sterile syringe for inoculation.
# In five sterilized 125 ml Erlenmeyer culture flasks (Cat. No. 30180-036, VWR International, USA), 10 ml of ZW658 strain seed culture at Optical Density of approximately 5 (measured at 600 nm; OD600) was inoculated into each flask with 100 ml of aqueous solution containing 110 g/L glucose, 90 g/L xylose, 10 g/L yeast extract (YE), 2 g/L KH2PO4, 4 g/L KHCO3, and various concentrations of sorbitol (10, 20, 50, 100, and 200 mM). Initial pH was adjusted to 5.5 with 4 NH3PO4 solution. Mixing speed was set at 150 rpm. Fermentation was conducted at 33° C. and pH was not controlled. Samples were taken periodically. Samples were filtered through 0.22 micron filters, and the filtrates were analyzed by HPLC as described in General Methods for ethanol. Samples were diluted with medium (as described in General Methods) and the OD600 was measured to monitor cell growth. […] After 24 hours, the OD600 were 7.74, 7.86, 8.04, 7.82, and 7.12, respectively, for sorbitol concentrations of 10, 20, 50, 100, and 200 mM. After 48 hours, the OD600 were 8.30, 8.26, 8.84, 8.12, and 7.72, respectively, for sorbitol concentrations of 10, 20, 50, 100, and 200 mM. […] Ethanol production was slightly slower with 100 or 200 mM sorbitol than with 10, 20, or 50 mM sorbitol, although all cultures reached about the same final amount of ethanol produced. […] Thus 10 mM sorbitol is adequate to provide maximal ethanol production under these conditions.
# ZW658 strain [2] = assay: Flask growth of ZW658 on glucose and xylose with sorbitol 0.5-10 mM; details: after 14.25 hours, total sugar about 160 g/L
# Experimental: as §1, §3
# In five sterilized 125 ml Erlenmeyer culture flasks (Cat. No. 30180-036, VWR International, USA), 10 ml of ZW658 strain seed culture at OD600 of approximately 5 (measured at 600 nm) was inoculated into each flask with 100 ml of aqueous solution containing 100 g/L glucose, 80 g/L xylose, 10 g/L yeast extract (YE), 10 g/L KH2PO4, 2 g/L (NH4)2SO4, 1 g/L MgSO4.7H2O, and various concentrations of sorbitol (0, 0.5, 1, 2, and 10 mM). After inoculation, the total sugar concentration was about 160 g/L due to dilution by the seed culture. Initial pH was adjusted to 5.5 with 4 N KOH solution. Mixing speed was set at 150 rpm. Fermentation was conducted at 33° C. and pH was not controlled. Samples were taken periodically. Samples were diluted with medium (as described in General Methods) and the OD600 was measured to monitor cell growth. […] Cultures with higher concentration of sorbitol, in this range, grew faster and better. After 14.25 hours, the OD600 were 4.19, 7.10, 8.08, 8.62, and 10.1, respectively, for sorbitol concentrations of 0, 0.5, 1, 2, and 10 mM.
# ZW658 strain [3] = assay: 1-liter fermentor, ZW658 on glucose and xylose in the presence of sorbitol and acetate; details: 5.8 g/L acetate, 10 mM sorbitol
# Experimental: as §1, §2, §3
# In a sterilized 1-liter fermentor (BIOSTAT® B-DCU system, Sartorius BBI System Inc., Bethlehem, Pa., USA), 50 ml of ZW658 strain seed culture at OD600 of approximately 5 was inoculated into 450 ml of aqueous solution containing sugars and medium. The final mixed broth contained 99.0 g/L glucose, 82.7 g/L xylose, 5.8 g/L acetate (in the form of potassium acetate), 10 g/L yeast extract (YE), 2 g/L KH2PO4, and 10 mM sorbitol. pH was adjusted to 5.5 with 4 N KOH solution. Mixing speed was set at 150 rpm. Fermentation was conducted at 33° C. and pH 5.5. Samples were taken periodically. Samples were filtered through 0.22 micron filters, and the filtrates were analyzed by HPLC as described in General Methods for compounds including glucose, xylose, ethanol, and acetate. Samples were also diluted with medium (as described in General Methods) and the OD600 was measured to monitor cell growth.
smiles,measurement,setting,value
OC[C@@H](O)[C@@H](O)[C@H](O)[C@@H](O)CO [sorbitol],xylitol,"ZW658 strain [1]; 10-200 mM sorbitol, any of the samples",No xylitol was detected
same,OD600,"ZW658 strain [1]; after 24 hours, 10 mM sorbitol, 110 g/L glucose, 90 g/L xylose",7.74
same,OD600,"ZW658 strain [1]; after 24 hours, 20 mM sorbitol",7.86
same,OD600,"ZW658 strain [1]; after 24 hours, 50 mM sorbitol",8.04
same,OD600,"ZW658 strain [1]; after 24 hours, 100 mM sorbitol",7.82
same,OD600,"ZW658 strain [1]; after 24 hours, 200 mM sorbitol",7.12
same,OD600,"ZW658 strain [1]; after 48 hours, 10 mM sorbitol",8.30
same,OD600,"ZW658 strain [1]; after 48 hours, 20 mM sorbitol",8.26
same,OD600,"ZW658 strain [1]; after 48 hours, 50 mM sorbitol",8.84
same,OD600,"ZW658 strain [1]; after 48 hours, 100 mM sorbitol",8.12
same,OD600,"ZW658 strain [1]; after 48 hours, 200 mM sorbitol",7.72
same,OD600,ZW658 strain [2]; 0.5 mM sorbitol,7.10
same,OD600,ZW658 strain [2]; 1 mM sorbitol,8.08
same,OD600,ZW658 strain [2]; 2 mM sorbitol,8.62
same,OD600,ZW658 strain [2]; 10 mM sorbitol,10.1
same,by product xylitol concentration,ZW658 strain [3]; after 63.75 hours (stationary phase),3.55 g/L
same,OD600 cells grew to,ZW658 strain [3]; after 63.75 hours,6.4
same,ethanol concentration,ZW658 strain [3]; after 63.75 hours,70.0 g/L
same,xylose concentration,ZW658 strain [3]; after 63.75 hours,29.6 g/L
same,glucose concentration,"ZW658 strain [3]; after 63.75 hours, 99.0 g/L glucose, 82.7 g/L xylose, 33° C., pH 5.5",0 g/L
